Calls of active or inactive are those of the source.
What was measured:
L02 [1] = conditions: Homo sapiens, 5 to 10 uM
Description: Cytoprotective activity against APAP-induced hepatotoxicity in human L02 cells assessed as inhibition of IL1beta production at 5 to 10 uM preincubated for 12 hrs followed by APAP stimulation and measured after 24 hrs by ELISA

[2] = biological target: T1, Nuclear factor erythroid 2-related factor 2 (Homo sapiens) (UniProt Q16236); assay: Activation of Nrf2 in human L02 cells harboring control siRNA assessed as increase in NEFL2L expression at 10 uM measured after 10 hrs by Western blot analysis; type: cell-based
T1 sequence (whole entry): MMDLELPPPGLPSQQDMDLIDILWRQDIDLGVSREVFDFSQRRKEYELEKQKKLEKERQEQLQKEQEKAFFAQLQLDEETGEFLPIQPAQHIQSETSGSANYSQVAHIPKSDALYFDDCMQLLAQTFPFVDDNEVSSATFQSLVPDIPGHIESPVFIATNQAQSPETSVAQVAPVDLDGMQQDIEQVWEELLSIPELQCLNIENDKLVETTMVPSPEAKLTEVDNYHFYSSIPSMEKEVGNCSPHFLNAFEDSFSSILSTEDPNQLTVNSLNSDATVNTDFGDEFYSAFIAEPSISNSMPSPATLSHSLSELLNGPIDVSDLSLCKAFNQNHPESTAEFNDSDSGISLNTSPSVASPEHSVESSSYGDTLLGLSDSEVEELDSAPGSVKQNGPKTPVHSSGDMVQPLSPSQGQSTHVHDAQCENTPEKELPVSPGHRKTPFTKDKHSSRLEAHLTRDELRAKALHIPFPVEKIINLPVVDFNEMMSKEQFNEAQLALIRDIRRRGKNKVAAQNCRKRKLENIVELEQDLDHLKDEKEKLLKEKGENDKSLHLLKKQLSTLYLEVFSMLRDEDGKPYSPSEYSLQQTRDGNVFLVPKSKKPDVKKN

Mus musculus [3] = assay: Protection against APAP-induced hepatotoxicity in C57BL/6 mouse assessed as decrease in total bilirubin level at 10 mg/kg, ip treated 2 hrs prior to 22 hrs starvation followed by APAP challenge and measured after 6 hrs; type: functional, organism-based
Mus musculus [4] = assay: Protection against APAP-induced hepatotoxicity in C57BL/6 mouse assessed as reduction in liver apoptosis at 10 to 40 mg/kg, ip treated 2 hrs prior to 22 hrs starvation followed by APAP challenge and measured after 6 hrs by TUNEL assay; type: functional, organism-based
L02 [5] = assay: Cytoprotective activity against APAP-induced oxidative stress in human L02 cells assessed as decrease in MDA activity at 5 to 10 uM preincubated for 12 hrs followed by APAP stimulation and measured after 24 hrs; type: functional, cell-based
L02 [6] = conditions: Homo sapiens, 5 to 10 uM; remark: listed apart in the source
Description: Cytoprotective activity against APAP-induced hepatotoxicity in human L02 cells assessed as inhibition of IL6 production at 5 to 10 uM preincubated for 12 hrs followed by APAP stimulation and measured after 24 hrs by ELISA

Mus musculus [7] = assay: Protection against APAP-induced hepatotoxicity in C57BL/6 mouse assessed as decrease in MPO activity in liver at 10 to 40 mg/kg, ip treated 2 hrs prior to 22 hrs starvation followed by APAP challenge and measured after 6 hrs; type: functional, organism-based
[8] = biological target: T1, Nuclear factor erythroid 2-related factor 2 (Homo sapiens); assay: Activation of Nrf2 in human L02 cells assessed as increase in GCLM expression measured after 12 hrs by Western blot analysis; type: cell-based
L02 [9] = conditions: Homo sapiens, 5 to 10 uM; remark: listed apart in the source
Description: Cytoprotective activity against APAP-induced hepatotoxicity in human L02 cells assessed as inhibition of TNFalpha production at 5 to 10 uM preincubated for 12 hrs followed by APAP stimulation and measured after 24 hrs by ELISA

[10] = biological target: T1, Nuclear factor erythroid 2-related factor 2 (Homo sapiens); assay: Activation of Nrf2 in human L02 cells assessed as increase in GCLM expression at 10 uM measured after 4 to 72 hrs hrs by Western blot analysis; type: cell-based
Mus musculus [11] = assay: Protection against APAP-induced hepatotoxicity in C57BL/6 mouse assessed as decrease in liver lymphocytes infiltration at 10 to 40 mg/kg, ip treated 2 hrs prior to 22 hrs starvation followed by APAP challenge and measured after 6 hrs by H and E staining-based light microscopic analysis; type: functional, organism-based
[12] = biological target: T1, Nuclear factor erythroid 2-related factor 2 (Homo sapiens); assay: Activation of Nrf2 in human L02 cells assessed as increase in NEFL2L mRNA expression at 10 uM measured after 8 to 24 hrs by trizol reagent based qRT-PCR analysis; type: cell-based

COc1ccc(S(=O)(=O)N(CC(=O)O)c2ccc(N3CCC[C@H]3C(=O)O)c3ccccc23)cc1
active: inhibition (L02 [1]) | Activity [2] | Activity (Mus musculus [3]) | Activity (Mus musculus [4]) | Activity (L02 [5]) | inhibition (L02 [6]) | Activity (Mus musculus [7]) | Activity [8] Dose-dependent effect | inhibition (L02 [9]) | Activity [10] | Activity (Mus musculus [11]) | Activity [12]
